Key:
IL-6 = assay: Ex vivo serum IL-6 quantification; format: in vivo, rat
Procedure: (§1) At the end of the study, animals fasted for 12 h and were taken to a humane endpoint, where blood samples were obtained. These were kept at room temperature for 30 min and then centrifuged at 4000 RPM for 15 min at 4 °C. Finally, the serum was used to perform 24-element blood chemistry and quantify Trolox-equivalent TAC [86], TNF-α [87], and IL-6 levels using commercial kits from Merck (Darmstadt, Germany), Sigma-Aldrich (St. Louis, MO, USA), Cat. No. MAK334-1KT, RAB0479-1KT, and RAB0311-1KT, respectively. In addition, insulin was quantified using the Rat Ins1/Insulin ELISA Kit, from Sigma-Aldrich, No. Cat. RAB0904-1KT [89] to determine the HOMA-IR index. All kits were performed according to the manufacturer’s instructions without modifications.

[1] = system: STZ-HFD-induced T2D Wistar rats; assay: 24-element blood chemistry in STZ-HFD-induced T2D model; format: in vivo, rat; design: GGT / TBA / AMY / TG / T-CHOL / GLU: unit not given here; conditions: for ALP / ALT / AST / CK: in U/L (unit assumed); for ALB / GLO / TP: in g/dL (unit assumed); for BUN / CRE / Ca / Mg / P / TBIL / UREA: in mg/dL (unit assumed); for tCO2: in mmol/L (unit assumed); for TP: mean ± SEM, n = 4
Procedure: (§2) Treatments were administered daily as described above, adjusting the dose according to the weight of the individuals. Fasting glucose levels (6 h fast) were monitored every 7 days until the end of treatments at week 10 (Figure 14). Halfway through the last week of treatment, the OGTT was performed, administering a dose of 1.5 g/Kg of glucose orally and subsequently monitoring capillary blood glucose at 0, 15, 30, 60, 90, and 120 min [62]. In addition, a 24-element blood chemistry was measured in a Celercare V automated dry chemistry analyzer (Tianjin MNCHIP Technologies Co., Ltd., Tianjin, China) at the beginning and end of the model. For this purpose, the blood samples were obtained from the tail of the rat.
as §1

[2] = system: STZ-HFD-induced T2D Wistar rats; assay: Subchronic evaluation in STZ-HFD-induced T2D model; format: in vivo, rat; design: HbA1c: unit not given here
Procedure: In vivo experiments were conducted in an acute and a subchronic model, where Wistar rats (180–220 g) were used. The study covered a total period of 10 weeks and was carried out under the Mexican Standard, and the “Guide for the Care and Use of Laboratory Animals” of the National Research Council and Health Institutes was followed.
At first, animals were housed in polypropylene cages under conditions of controlled temperature (20–25 °C), relative humidity (36–60%), and light/dark cycles, with water ad libitum. Before starting the experiment, they were given a one-week acclimatization period to adapt to their new habitat. Once finalized, animals were fed an HFD for 3 weeks to generate insulin resistance.
After this period, the animals fasted for 12 h and then were administered intraperitoneally with a single dose of 35 mg/Kg of STZ dissolved in a buffer of 0.1 M citrate, pH 4.5 (prepared on the same day of administration). Once administered, the hypercaloric diet was maintained, and 10% sucrose solution was placed on demand for 2 days.
One week after administration, postprandial blood glucose levels were measured by venipuncture using a glucometer. Those animals that maintained a glucose level between 200 and 400 mg/dL were included in the study.
as §2, §1

FRAP assay = assay: FRAP assay
Procedure: (§3) All synthesized compounds were evaluated at 30 μM, 50 μM, 70 μM, 90 μM, and 110 μM under two of the most widely used methods in research to directly measure the antioxidant and anti-radical intrinsic capacity, FRAP, and ABTS assay, which were validated by a dose–response curve of 5-ASA as a reference. In the same way, these tests were carried out in triplicate using an assay kit (from Pharmaceutical and Biotechnological Innovation-Services) according to the manufacturer’s instructions.

ABTS assay = assay: ABTS assay
Procedure: as §3

TNF-α = assay: Ex vivo serum TNF-α quantification; format: in vivo, rat
Procedure: as §1

ALR2 enzyme = biological target: T1, ALR2 enzyme (Homo sapiens, UniProt P15121); assay: ALR2 activity assay kit (ab273276), inhibition; format: biochemical;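 on relative ALR2 inhibition: inhibition calculated from the rate of NADPH cofactor consumption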
T1 construct: purchased ab273276
Procedure: The obtained dose–response curve had concentrations of 10 μM, 5 μM, 500 nM, 50 nM, and 5 nM.

[3] = Table S11, After 5 weeks of treatment
[4] = serum, end of treatment, mean ± SEM, n = 4
[5] = after the induction of T2D, before treatment

COC(=O)[C@H](Cc1ccccc1)N/C(=N\c1nc2ccccc2s1)SC [8d, Methyl (E)-((benzo[d]thiazol-2-ylimino)(methylthio)methyl)-L-phenylalaninate]
effect on IL-6 and TNF-α levels (IL-6; IL-6 and TNF-α together): highest levels of both cytokines | IL-6 (IL-6; [3]): 887.53 ± 243.91 pg/mL | IL-6 (IL-6; [4]): 887.53 ± 243.91 pg/mL | triglycerides (TG) ([1]; After 5 weeks of treatment): significantly reducing TG | A/G ([1]; Final): 1.28 ± 0.03 | AMY ([1]; Final): 436.50 ± 29.54 | AST/ALT ([1]; Final): 4.42 ± 0.79 | BUN/CRE ([1]; Final): 28.50 ± 6.00 | GGT ([1]; Final): 0.65 ± 0.18 | GLU ([1]; Final): 172.75 ± 50.56 | T-CHOL ([1]; Final): 90.00 ± 16.06 | TBA ([1]; Final): 54.33 ± 31.99 | TG ([1]; Final): 177.90 ± 82.61 | ALP ([1]; Final): 210.25 ± 109.57 | ALT ([1]; Final): 85.50 ± 27.46 | AST ([1]; Final): 319.75 ± 51.70 | CK ([1]; Final): > 3000 | ALB ([1]; Final): 4.00 ± 0.16 | GLO ([1]; Final): 3.13 ± 0.13 | BUN ([1]; Final): 17.78 ± 4.29 | CRE ([1]; Final): 0.62 ± 0.03 | Ca ([1]; Final): 9.82 ± 0.48 | Mg ([1]; Final): 2.34 ± 0.09 | P ([1]; Final): 7.89 ± 0.55 | TBIL ([1]; Final): 0.25 ± 0.05 | UREA ([1]; Final): 38.10 ± 9.11 | tCO2 ([1]; Final): 18.00 ± 0.82 | TP ([1]; Final): 7.13 ± 0.28 | A/G ([1]; Initial): 1.3 ± 0.11 | AMY ([1]; Initial): 361.25 ± 6.54 | AST/ALT ([1]; Initial): 2.16 ± 0.40 | BUN/CRE ([1]; Initial): 21.50 ± 2.60 | GGT ([1]; Initial): 1.33 ± 0.38 | GLU ([1]; Initial): 188.50 ± 31.74 | T-CHOL ([1]; Initial): 105.5 ± 19.94 | TBA ([1]; Initial): 79.85 ± 13.64 | TG ([1]; Initial): 291.35 ± 160.5 | ALP ([1]; Initial): 287.75 ± 31.54 | ALT ([1]; Initial): 68.75 ± 11.67 | AST ([1]; Initial): 135.75 ± 8.14 | CK ([1]; Initial): 641.75 ± 63.37 | ALB ([1]; Initial): 3.78 ± 0.08 | GLO ([1]; Initial): 2.95 ± 0.22 | BUN ([1]; Initial): 11.94 ± 1.46 | CRE ([1]; Initial): 0.56 ± 0.00 | Ca ([1]; Initial): 9.45 ± 0.16 | Mg ([1]; Initial): 2.18 ± 0.07 | P ([1]; Initial): 6.83 ± 0.64 | TBIL ([1]; Initial): 0.31 ± 0.05 | UREA ([1]; Initial): 25.65 ± 3.10 | tCO2 ([1]; Initial): 15.25 ± 0.63 | TP ([1]; Initial): 6.73 ± 0.20 | hepatotoxicity ([1]; subchronic treatment): without inducing hepatotoxicity | HOMA-IR ([2]; After 5 weeks of treatment): 1.66 ± 0.611 | R-QUICKI ([2]; After 5 weeks of treatment): 0.376 ± 0.031 | HbA1c ([2]; After 5 weeks of treatment, mean ± SEM, n = 4): 9.267 ± 0.802 | HOMA-IR ([2]; Final (end of 5 weeks treatment), PGZ 30 mg/Kg, 8d 32 mg/Kg, mean ± SEM, n = 4): 1.66 ± 0.61 | HOMA-IR ([2]; Initial (beginning of treatment), PGZ 30 mg/Kg, 8d 32 mg/Kg, mean ± SEM, n = 4): 4.22 ± 1.58 | HOMA-IR [2, 5]: 4.22 ± 1.577 | R-QUICKI [2, 5]: 0.318 ± 0.013 | HbA1c ([2]; after the induction of T2D, before treatment, mean ± SEM, n = 4): 8.633 ± 0.536 | adipogenic effect at necropsy ([2]; after treatment): clear adipogenic effect | polydipsia (water consumption) ([2]; daily oral treatment): decreasing the polydipsia after the first week of treatment | fasting blood glucose, subchronic ([2]; daily oral, 5 weeks): lower blood glucose levels close to the normoglycemia of the healthy group | redistribution of adipose tissue from visceral to subcutaneous fat ([2]; necropsy): barely perceptible | Percentage reduction of ferric ion to ferrous ion (FRAP) (FRAP assay; 30 µM): 12.7% | Percentage reduction of ferric ion to ferrous ion (FRAP) (FRAP assay; 50 µM): 14.1% | Percentage reduction of ferric ion to ferrous ion (FRAP) (FRAP assay; 70 µM): 15.1% | Percentage reduction of ferric ion to ferrous ion (FRAP) (FRAP assay; 90 µM): 16.9% | Percentage reduction of ferric ion to ferrous ion (FRAP) (FRAP assay; 110 µM): 18.4% | Percentage reduction of radical cation ABTS (ABTS assay; 30 µM): -4.0% | Percentage reduction of radical cation ABTS (ABTS assay; 50 µM): -3.0% | Percentage reduction of radical cation ABTS (ABTS assay; 70 µM): -4.2% | Percentage reduction of radical cation ABTS (ABTS assay; 90 µM): -3.6% | Percentage reduction of radical cation ABTS (ABTS assay; 110 µM): -2.5% | TNF-α (TNF-α; [3]): 5417.72 ± 2104.18 pg/mL | TNF-α (TNF-α; [4]): 5417.72 ± 2104.2 pg/mL | concentrations at which ALR2 was inhibited (ALR2 enzyme): below 10 µM | concentration dependence of ALR2 inhibition (IC50 not calculable) (ALR2 enzyme; 10 μM to 5 nM): did not show a concentration-dependent response | relative ALR2 inhibition (ALR2 enzyme; Inhibitor concentration 5 nm): 93.590% | relative ALR2 inhibition (ALR2 enzyme; Inhibitor concentration 50 nm): 91.644% | relative ALR2 inhibition (ALR2 enzyme; Inhibitor concentration 500 nm): 86.494% | relative ALR2 inhibition (ALR2 enzyme; Inhibitor concentration 5000 nm): 80.389% | relative ALR2 inhibition (ALR2 enzyme; Inhibitor concentration 10000 nm): 89.966%

Reference: PMC12388506, “Preclinical Evaluation of 2-Aminobenzothiazole Derivatives: In Silico, In Vitro, and Preliminary In Vivo Studies as Diabetic Treatments and Their Complications” (Molecules, 2025)
